Measured values reported in patent US20260315468A1, “PHARMACEUTICAL COMPOSITION AND USE THEREOF” (SHANGHAI ALLIST PHARMACEUTICAL CO., LTD., priority 2022, published 2026).

Tested on: EGFR PACC mutant NSCLC
Experiment: Clinical trial, open-label, multi-center, dose-escalation and dose expansion, preliminary tumor assessment
Format: in vivo, human
Settings: for Maximum SLD % change from baseline: one patient
Excerpt: An open-label, multi-center, dose-escalation and dose expansion study was designed and carried out to evaluate the safety, pharmacokinetics (PK), and preliminary antitumor activity of furmonertinib in patients with advanced or metastatic non-small cell lung cancer (NSCLC) with activating (including uncommon) Epidermal Growth Factor Receptor (EGFR) or Human Epidermal Growth Factor Receptor 2 (HER2) mutations. The first stage of the trial involved a dose escalation trial segment to evaluate once-daily dosing of furmonertinib starting at 240 mg daily, with subsequent patient cohorts to be administered furmonertinib at a higher or lower dose, if necessary, followed by expansion cohorts in defined patient groups with furmonertinib administered at 240 mg (and 160 mg in the case of EGFR PACC mutant NSCLC) daily.
General enrollment criteria include: • 1) Histologically or cytologically documented, locally advanced or metastatic Non-Small Cell Lung Cancer (NSCLC) not amenable to curative surgery or radiotherapy; • 2) Disease that has progressed after at least one available standard therapy; or for whom standard therapy has proven to be ineffective or intolerable; or for whom a clinical trial of an investigational agent is a recognized standard of care; • 3) Documented radiologic disease progression during or after the last systemic anti-cancer therapy before the first dose of furmonertinib; • 4) For patients with Epidermal Growth Factor Receptor (EGFR) mutations sensitive to osimertinib, the patient must have received osimertinib prior to study enrollment in regions where osimertinib is approved, including the US.
Exclusion criteria include: • 1) Treatment with chemotherapy, targeted therapy, biologic therapy or an investigational agent as anti-cancer therapy within […] or 5 elimination half-lives prior to initiation of furmonertinib, whichever is shorter; • 2) Radiation therapy as cancer therapy within 4 weeks prior to initiation of furmonertinib; • 3) Palliative radiation to bone metastases within 2 weeks prior to initiation of furmonertinib; • 4) AE from prior anticancer therapy that have not resolved to Grade ≤1 except for alopecia or Grade ≤2 peripheral neuropathy.

SMILES: C=CC(=O)Nc1cc(Nc2nccc(-c3cn(C)c4ccccc34)n2)c(OCC(F)(F)F)nc1N(C)CCN(C)C [furmonertinib, N-{2-{[2-(dimethylamino)ethyl](methyl)amino}-6-(2,2,2-trifluoroethoxy)-5-{[4-(1-methyl-1H-indol-3-yl)pyrimidin-2-yl]amino}pyridin-3-yl}acrylamide]
- Maximum SLD % change from baseline (160 mg QD, EGFR mutation E709A + L858R, prior anti-tumor therapy: None): −40%
- tumor size and clinical activity (240 mg QD and 160 mg QD, NSCLC patients with EGFR PACC mutation, no previous TKI treatment): a decrease in tumor size and clinical activity
- Maximum SLD % change from baseline (240 mg QD, EGFR mutation G719A, prior anti-tumor therapy: None): −23%
- Maximum SLD % change from baseline (240 mg QD, EGFR mutation S768I + V769L, prior 1L: CARBOPLATIN + PEMETREXED + PEMBROLIZUMAB): −30%
